In patent publication US5036091A, “3-Aryloxazolidinone derivatives, process for their preparation and their use in therapy” (Delalande S.A., priority 1989, dated 1991):

What was measured:
5-HTP potentialisation = 5-HTP potentialisation assay in rat (antidepressive activity); assay type: in vivo; settings: po, compound given orally, 5-HTP intra-peritoneal 1 h after the first treatment, read-out: ED50 (dose which brings about in 50% of the animals generalized shakings or stereotypies consecutive to 5-HTP)
Description: Int. Pharmacodyn. (1982), 259, 194-221. The dose of product which, when given orally, brings about in 50% of the animals (ED50) the appearance of generalized shakings or of stereotypies (trinklings, shakes of head) consecutive to the administration by intra-peritoneal route 1 h after the first treatment of 5-hydroxy-tryptophane (5-HTP) is determined in rat.

acute toxicity in mouse = settings: in vivo, po, method of Litchfield and Wilcoxon

SMILES | ED50 (5-HTP potentialisation) [mg/kg] | LD50 (acute toxicity in mouse) [mg/kg]
Cc1cccc(N2CC(CO)OC2=O)c1 (stereo not shown) [TOLOXATONE, reference compound] | 30 | 
COC[C@H]1CN(c2ccc(OCC[C@@H](C)O)cc2)C(=O)O1 [MD370120, 3-[4-(3(R)-hydroxybutoxy)phenyl]-5(R)-methoxymethyl-2-oxazolidinone] | 0.83 | 1400
COCC1CN(c2ccc(OCCC(C)O)cc2)C(=O)O1 (racemic) [MD370047, 3-[4-(3-hydroxybutoxy)phenyl]-5-methoxymethyl-2-oxazolidinone] | 1.9 | 
COC[C@H]1CN(c2ccc(OCC[C@@H](O)C(F)(F)F)cc2)C(=O)O1 [MD370503, 3-[4-(4,4,4-trifluoro-3(R)-hydroxybutoxy)phenyl]-5(R)-methoxymethyl-2-oxazolidinone] | 0.14 | 2500
COC[C@H]1CN(c2ccc(OCC[C@H](O)C(F)(F)F)cc2)C(=O)O1 [MD370504, 3-[4-(4,4,4-trifluoro-3(S)-hydroxybutoxy)phenyl]-5(R)-methoxymethyl-2-oxazolidinone] | 1.8 | 
COC[C@H]1CN(c2ccc(OCC3CCCC3O)cc2)C(=O)O1 (stereo partly drawn) [MD230201, 3-[4-(1-hydroxy-2-cyclopentylmethoxy)phenyl]-5(R)-methoxymethyl-2-oxazolidinone] | 1.6 | 
COC[C@H]1CN(c2ccc(OCC[C@H](C)O)cc2)C(=O)O1 [MD370122, 3-[4-(3(S)-hydroxybutoxy)phenyl]-5(R)-methoxymethyl-2-oxazolidinone] | 0.68 | 
COCC1CN(c2ccc(OCCC(O)C(F)(F)F)cc2)C(=O)O1 (racemic) [MD370167, 3-[4-(4,4,4-trifluoro-3-hydroxybutoxy)phenyl]-5-methoxymethyl-2-oxazolidinone] | 1.1 | 
COC[C@H]1CN(c2ccc(CCCC(C)O)cc2)C(=O)O1 (stereo partly drawn) [MD230082, 3-[4-(4-hydroxypentyl)phenyl]-5(R)-methoxymethyl-2-oxazolidinone] | 1.1 | 
CCOC[C@H]1CN(c2ccc(OCC[C@@H](O)C(F)(F)F)cc2)C(=O)O1 [MD230197] | 2.4 | 
COC[C@H]1CN(c2ccc(CCC[C@@H](C)O)cc2)C(=O)O1 [MD230238, 3-[4-(4(R)-hydroxypentyl)phenyl]-5(R)-methoxymethyl-2-oxazolidinone] | 1.9 | 
